# Measurements: US9743666B2, “Herbicidal composition comprising flazasulfuron and an inhibitor of protoporphyrinogen oxidase” (ISHIHARA SANGYO KAISHA, LTD., priority 2011, dated 2017)
# Like-named read-outs stand apart in the source and are kept apart here.
# Tests used:
# corn (Zea mays L.) = assay: Test Example 18: pot test, soil treatment of corn; type: in vivo; details: 14th day after treatment, read-out: Growth inhibition rate (%) of corn, Measured value
# [1] = system: ivy-leaved morningglory (Ipomoea hederacea Jacq.); assay: Test Example 19: pot test, soil treatment of ivy-leaved morningglory; type: in vivo; details: 14th day after treatment, read-out: Growth inhibition rate (%) of ivy-leaved morningglory, Measured value
# [2] = system: velvetleaf (Abutilon theophrasti Medic.); assay: Test Example 8: pot test, soil treatment of velvetleaf; type: in vivo; details: 28th day after treatment, read-out: Growth inhibition rate (%) of velvetleaf, Measured value
# [3] = system: wild oat (Avena fatua L.); assay: Test Example 16: pot test, soil treatment of wild oat, 28th day; type: in vivo
# [4] = system: shattercane (Sorghum bicolor (L.) Moench); assay: Test Example 20: pot test, soil treatment of shattercane; type: in vivo; details: 14th day after treatment, read-out: Growth inhibition rate (%) of shattercane, Measured value
# [5] = system: wild oat (Avena fatua L.); assay: Test Example 5: pot test, soil treatment of wild oat, 13th day; type: in vivo; details: soil treatment one day after sowing, 13th day after treatment; for inhibition at 25 g/ha / inhibition at 50 g/ha: Avena fatua, 24 h, read-out: Growth inhibition rate (%) of wild oat, Measured value
# [6] = system: persian speedwell (Veronica persica Poir.); assay: Test Example 12: pot test, foliar treatment of persian speedwell, 4.0 to 4.3 leaf-stage; type: in vivo; details: read-out: Growth inhibition rate (%) of persian speedwell, Measured value
# [7] = system: common lambsquarters (Chenopodium album L.); assay: Test Example 4: pot test, foliar treatment of common lambsquarters; details: read-out: Growth inhibition rate (%) of lambsquarters, Measured value
# [8] = system: bermudagrass (Cynodon dactylon (L.) Pers.); assay: Test Example 10: pot test, foliar treatment of bermudagrass, 2.2 to 2.5 leaf-stage; type: in vivo; details: read-out: Growth inhibition rate (%) of bermudagrass, Measured value
# [9] = system: sticky chickweed (Cerastium glomeratum Thuill.); assay: Test Example 3: pot test, foliar treatment of sticky chickweed; type: in vivo; details: read-out: Growth inhibition rate (%) of sticky chickweed, Measured value
# [10] = system: sunn-hemp (Crotalaria juncea L.); assay: Test Example 7: pot test, soil treatment of sunn-hemp; type: in vivo
# [11] = system: persian speedwell (Veronica persica Poir.); assay: Test Example 1: pot test, foliar treatment of persian speedwell; type: in vivo; details: read-out: Growth inhibition rate (%) of persian speedwell, Measured value
# [12] = system: bermudagrass (Cynodon dactylon (L.) Pers.); assay: Test Example 11: pot test, foliar treatment of bermudagrass, 3.8 to 4.3 leaf-stage; type: in vivo; details: read-out: Growth inhibition rate (%) of bermudagrass, Measured value
# [13] = system: black nightshade (Solanum nigrum L.); assay: Test Example 2: pot test, foliar treatment of black nightshade; type: in vivo
# [14] = system: sunn-hemp (Crotalaria juncea L.); assay: Test Example 15: pot test, soil treatment of sunn-hemp; type: in vivo; details: 28th day after treatment
# [15] = system: wild oat (Avena fatua L.); assay: Test Example 17: pot test, soil treatment of wild oat, 14th day; type: in vivo; details: 14th day after treatment, read-out: Growth inhibition rate (%) of wild oat, Measured value
# [16] = system: black nightshade (Solanum nigrum L.); assay: Test Example 9: pot test, soil treatment of black nightshade; type: in vivo; details: 28th day after treatment, read-out: Growth inhibition rate (%) of black nightshade, Measured value
# [17] = system: rostrate sesbania (Sesbania rostrata Bremek. & Oberm.); assay: Test Example 14: pot test, soil treatment of rostrate sesbania, 14th day; type: in vivo; details: 14th day after treatment
# [18] = system: rostrate sesbania (Sesbania rostrata Bremek. & Oberm.); assay: Test Example 6: pot test, soil treatment of rostrate sesbania, 28th day; type: in vivo; details: 28th day after treatment
# [19] = system: japanese millet (Echinochloa esculenta (A. Braun) H. Scholz.); assay: Test Example 13: pot test, soil treatment of japanese millet; type: in vivo
# [20] = Crotalaria juncea, soil, read-out: Growth inhibition rate (%) of sunn-hemp, Measured value
# [21] = dose 50 g/ha, 2.2 to 2.5 leaf-stage, 28th day after treatment
compound,measurement,setting,value
"C=CCOC(=O)C(C)(C)OC(=O)c1cc(-n2c(=O)cc(C(F)(F)F)n(C)c2=O)ccc1Cl [Butafenacil, butafenacil]",inhibition at 100 g/ha,corn (Zea mays L.); dose 100 g/ha,20%
same,inhibition at 10 g/ha,[1]; dose 10 g/ha,0%
"CC(C)N(C)S(=O)(=O)NC(=O)c1cc(-n2c(=O)cc(C(F)(F)F)n(C)c2=O)c(F)cc1Cl [Saflufenacil, saflufenacil]",inhibition at 5 g/ha,[2]; dose 5 g/ha,0%
same,inhibition at 10 g/ha,[2]; dose 10 g/ha,65%
same,inhibition at 50 g/ha,"[3]; Avena fatua, dose 50 g/ha, soil treatment, 28th day after treatment, read-out: Growth inhibition rate (%) of wild oat, Measured value",0%
same,inhibition at 100 g/ha,[4]; dose 100 g/ha,20%
same,inhibition at 25 g/ha,[5],15%
same,inhibition at 50 g/ha,[5]; dose 50 g/ha,5%
"CCOC(=O)C(Cl)Cc1cc(-n2nc(C)n(C(F)F)c2=O)c(F)cc1Cl (stereo not drawn) [Carfentrazone-ethyl, carfentrazone-ethyl]",inhibition at 25 g/ha,[6],65%
same,inhibition at 27.4 g/ha,[7],92%
same,inhibition at 20 g/ha,[8],0%
same,inhibition at 50 g/ha,[8],0%
"CCOC(=O)COc1cc(-c2nn(C)c(OC(F)F)c2Cl)c(F)cc1Cl [Pyraflufen-ethyl, pyraflufen-ethyl]",inhibition at 10 g/ha,[9],58%
same,inhibition at 10 g/ha,[10]; [20],20%
same,inhibition at 50 g/ha,[10]; [20],45%
same,inhibition at 80 g/ha,[6],80%
same,inhibition at 10 g/ha,[11],43%
same,inhibition at 40 g/ha,[12],0%
same,inhibition at 2.5 g/ha,"[13]; Solanum nigrum, read-out: Growth inhibition rate (%) of black nightshade, Measured value",88%
"Cc1nn(-c2cc(NS(C)(=O)=O)c(Cl)cc2Cl)c(=O)n1C(F)F [Sulfentrazone, sulfentrazone]",inhibition at 25 g/ha,[2]; dose 25 g/ha,20%
same,inhibition at 500 g/ha,"[14]; Crotalaria juncea, dose 500 g/ha, read-out: Growth inhibition rate (%) of sunn-hemp, Measured value",30%
same,inhibition at 50 g/ha,[8]; [21],30%
"C#CCN1C(=O)COc2cc(F)c(N3C(=O)C4=C(CCCC4)C3=O)cc21 [Flumioxazin, flumioxazin]",inhibition at 100 g/ha,"[14]; Crotalaria juncea, dose 100 g/ha, read-out: Growth inhibition rate (%) of sunn-hemp, Measured value",0%
same,inhibition at 250 g/ha,"[3]; Avena fatua, dose 250 g/ha, soil treatment, 28th day after treatment, read-out: Growth inhibition rate (%) of wild oat, Measured value",90%
same,inhibition at 500 g/ha,[15]; dose 500 g/ha,75%
same,inhibition at 2.5 g/ha,[16]; dose 2.5 g/ha,0%
same,inhibition at 200 g/ha,"[17]; Sesbania, dose 200 g/ha, read-out: Growth inhibition rate (%) of rostrate sesbania, Measured value",75%
same,inhibition at 5 g/ha,"[8]; dose 5 g/ha, 2.2 to 2.5 leaf-stage, 28th day after treatment",20%
same,inhibition at 250 g/ha,"[18]; Sesbania, dose 250 g/ha, read-out: Growth inhibition rate (%) of rostrate sesbania, Measured value",70%
"CC(C)=C1OC(=O)N(c2cc(OC3CCCC3)c(Cl)cc2F)C1=O [Pentoxazone, pentoxazone]",inhibition at 250 g/ha,"[3]; Avena fatua, soil, read-out: Growth inhibition rate (%) of wild oat, Measured value",0%
same,inhibition at 100 g/ha,"[19]; Echinochloa esculenta, soil, read-out: Growth inhibition rate (%) of japanese millet, Measured value",0%
oxadiargyl,"Growth inhibition rate (%) of wild oat, Measured value",[5]; dose 50 g/ha,5%
same,"Growth inhibition rate (%) of wild oat, Measured value",[5]; dose 800 g/ha,20%
same,"Growth inhibition rate (%) of sunn-hemp, Measured value","[10]; dose 400 g/ha, soil treatment, 28th day after treatment",40%
same,"Growth inhibition rate (%) of rostrate sesbania, Measured value",[18]; dose 400 g/ha,20%
"COC(=O)CSc1cc(/N=c2\sc(=O)n3n2CCCC3)c(F)cc1Cl [Fluthiacet-methyl, fluthiacet-methyl]",inhibition at 50 g/ha,"[14]; Crotalaria juncea, dose 50 g/ha, read-out: Growth inhibition rate (%) of sunn-hemp, Measured value",0%
same,inhibition at 5 g/ha,"[17]; Sesbania, dose 5 g/ha, read-out: Growth inhibition rate (%) of rostrate sesbania, Measured value",0%
"C#CCN(C)c1c(C#N)cnn1-c1nn2c(c1Cl)CCCC2 [Pyraclonil, pyraclonil]","Growth inhibition rate (%) of wild oat, Measured value","[3]; dose 250 g/ha, soil treatment, 28th day after treatment",40%
same,"Growth inhibition rate (%) of japanese millet, Measured value","[19]; dose 100 g/ha, soil treatment, 14th day after treatment",30%
"COc1cc(OC)nc(NC(=O)NS(=O)(=O)c2ncccc2C(F)(F)F)n1 [Flazasulfuron, 1-(4,6-dimethoxypyrimidin-2-yl)-3-(3-trifluoromethyl-2-pyridylsulfonyl)urea]",inhibition at 6.3 g/ha,"[9]; dose 6.3 g/ha, 3.3 to 4.0 leaf-stage, 21st day after treatment",92%
same,inhibition at 50 g/ha,[2]; dose 50 g/ha,88%
same,inhibition at 100 g/ha,[2]; dose 100 g/ha,88%
same,inhibition at 25 g/ha,"[14]; Crotalaria juncea, dose 25 g/ha, read-out: Growth inhibition rate (%) of sunn-hemp, Measured value",0%
same,inhibition at 12.5 g/ha,"[3]; Avena fatua, dose 12.5 g/ha, soil treatment, 28th day after treatment, read-out: Growth inhibition rate (%) of wild oat, Measured value",20%
same,inhibition at 25 g/ha,"[3]; Avena fatua, dose 25 g/ha, soil treatment, 28th day after treatment, read-out: Growth inhibition rate (%) of wild oat, Measured value",75%
same,inhibition at 25 g/ha,[15]; dose 25 g/ha,30%
same,inhibition at 12.5 g/ha,[4]; dose 12.5 g/ha,0%
same,inhibition at 50 g/ha,[16]; dose 50 g/ha,85%
same,inhibition at 25 g/ha,[5],40%
same,inhibition at 50 g/ha,[5]; dose 50 g/ha,70%
same,inhibition at 50 g/ha,"[10]; Crotalaria juncea, dose 50 g/ha, soil treatment, 28th day after treatment, read-out: Growth inhibition rate (%) of sunn-hemp, Measured value",55%
same,inhibition at 25 g/ha,"[6]; dose 25 g/ha, 4.0 to 4.3 leaf-stage, 28th day after treatment",0%
same,inhibition at 25 g/ha,"[11]; dose 25 g/ha, 7 to 8 leaf-stage, 21st day after treatment",10%
same,inhibition at 50 g/ha,"[19]; Echinochloa esculenta, dose 50 g/ha, soil treatment, 14th day after treatment, read-out: Growth inhibition rate (%) of japanese millet, Measured value",80%
same,inhibition at 12.5 g/ha,"[12]; dose 12.5 g/ha, 3.8 to 4.3 leaf-stage, 28th day after treatment",15%
same,inhibition at 12.5 g/ha,corn (Zea mays L.); dose 12.5 g/ha,70%
same,inhibition at 50 g/ha,[1]; dose 50 g/ha,60%
same,inhibition at 1.6 g/ha,[7],3%
same,inhibition at 50 g/ha,"[17]; Sesbania, dose 50 g/ha, read-out: Growth inhibition rate (%) of rostrate sesbania, Measured value",50%
same,inhibition at 50 g/ha,"[13]; Solanum nigrum, dose 50 g/ha, 3.2 to 3.5 leaf-stage, 21st day after treatment, read-out: Growth inhibition rate (%) of black nightshade, Measured value",74%
same,dose required to completely suppress growth of black nightshade,[13]; flazasulfuron alone,≥ 50 g/ha
same,inhibition at 50 g/ha,[8]; [21],75%
same,inhibition at 100 g/ha,"[8]; dose 100 g/ha, 2.2 to 2.5 leaf-stage, 28th day after treatment",75%
same,inhibition at 12.5 g/ha,"[18]; Sesbania, dose 12.5 g/ha, read-out: Growth inhibition rate (%) of rostrate sesbania, Measured value",25%
"CCOC(=O)COc1cc(-n2ncc(C(F)(F)F)c(C)c2=O)c(F)cc1Cl [Flufenpyr-ethyl, flufenpyr-ethyl]","Growth inhibition rate (%) of sunn-hemp, Measured value",[14]; dose 50 g/ha,0%
same,"Growth inhibition rate (%) of rostrate sesbania, Measured value",[17]; dose 5 g/ha,0%
